By melting point is commonly meant the temperature, or range, at which the solid turns liquid.

Molecule `CC(C)(C)c1cc(NC(=O)Nc2ccc(Oc3cc(N)ncn3)cc2F)n(-c2ccc(F)cc2)n1` [Example 14, 1-[4-(6-Amino-pyrimidin-4-yloxy)-2-fluoro-phenyl]-3-[5-tert-butyl-2-(4-fluoro-phenyl]-2H-pyrazol-3-yl]-urea] displayed a melting point of 141 to 142 °C.
`CNc1cc(Oc2ccc(NC(=O)Nc3cc(C(C)(C)C)nn3-c3cccc(C(=O)N4CCN(C)CC4)c3)cc2)ncn1` [Example 15, 1-{5-tert-Butyl-2-[3-(4-methyl-piperazine-1-carbonyl)-phenyl]-2H-pyrazol-3-yl}-3-[4-(6-methylamino-pyrimidin-4-yloxy)-phenyl]-urea]: the melting point fell in the range of 146 to 147 °C.

(Values after patent US20090131437A1, “DISUBSTITUTED UREAS AS KINASE INHIBITORS” (CORIUM INTERNATIONAL, INC., priority 2005, published 2009).)
